Among the data in publication PMC10276812, “Cannabidiol inhibits Nav channels through two distinct binding sites” (Nature Communications, 2023) are IC50 and Kd values, retold here.

Holding throughout (assay type): cell-based
Assay [1] deals with T1, Nav1.7 (Homo sapiens, UniProt Q15858, N1459A/S1320A).
T1 construct: gene SCN9A
Put plainly: whole-cell patch clamp in transfected HEK293T cells.

Assay [2] concerns the target T2, Nav1.7 (Homo sapiens, UniProt Q15858).
T2 construct: gene SCN9A; no beta subunit stated for this line
Put plainly: cryo-EM structure at […] Å; Kd for the inactivated state calculated from patch-clamp (alpha subunit alone).

The target of assay [3] is T3, Nav1.7 (Homo sapiens, UniProt Q15858, N1459A).
T3 construct: gene SCN9A
T3 sequence (Q15858 whole entry N1459A): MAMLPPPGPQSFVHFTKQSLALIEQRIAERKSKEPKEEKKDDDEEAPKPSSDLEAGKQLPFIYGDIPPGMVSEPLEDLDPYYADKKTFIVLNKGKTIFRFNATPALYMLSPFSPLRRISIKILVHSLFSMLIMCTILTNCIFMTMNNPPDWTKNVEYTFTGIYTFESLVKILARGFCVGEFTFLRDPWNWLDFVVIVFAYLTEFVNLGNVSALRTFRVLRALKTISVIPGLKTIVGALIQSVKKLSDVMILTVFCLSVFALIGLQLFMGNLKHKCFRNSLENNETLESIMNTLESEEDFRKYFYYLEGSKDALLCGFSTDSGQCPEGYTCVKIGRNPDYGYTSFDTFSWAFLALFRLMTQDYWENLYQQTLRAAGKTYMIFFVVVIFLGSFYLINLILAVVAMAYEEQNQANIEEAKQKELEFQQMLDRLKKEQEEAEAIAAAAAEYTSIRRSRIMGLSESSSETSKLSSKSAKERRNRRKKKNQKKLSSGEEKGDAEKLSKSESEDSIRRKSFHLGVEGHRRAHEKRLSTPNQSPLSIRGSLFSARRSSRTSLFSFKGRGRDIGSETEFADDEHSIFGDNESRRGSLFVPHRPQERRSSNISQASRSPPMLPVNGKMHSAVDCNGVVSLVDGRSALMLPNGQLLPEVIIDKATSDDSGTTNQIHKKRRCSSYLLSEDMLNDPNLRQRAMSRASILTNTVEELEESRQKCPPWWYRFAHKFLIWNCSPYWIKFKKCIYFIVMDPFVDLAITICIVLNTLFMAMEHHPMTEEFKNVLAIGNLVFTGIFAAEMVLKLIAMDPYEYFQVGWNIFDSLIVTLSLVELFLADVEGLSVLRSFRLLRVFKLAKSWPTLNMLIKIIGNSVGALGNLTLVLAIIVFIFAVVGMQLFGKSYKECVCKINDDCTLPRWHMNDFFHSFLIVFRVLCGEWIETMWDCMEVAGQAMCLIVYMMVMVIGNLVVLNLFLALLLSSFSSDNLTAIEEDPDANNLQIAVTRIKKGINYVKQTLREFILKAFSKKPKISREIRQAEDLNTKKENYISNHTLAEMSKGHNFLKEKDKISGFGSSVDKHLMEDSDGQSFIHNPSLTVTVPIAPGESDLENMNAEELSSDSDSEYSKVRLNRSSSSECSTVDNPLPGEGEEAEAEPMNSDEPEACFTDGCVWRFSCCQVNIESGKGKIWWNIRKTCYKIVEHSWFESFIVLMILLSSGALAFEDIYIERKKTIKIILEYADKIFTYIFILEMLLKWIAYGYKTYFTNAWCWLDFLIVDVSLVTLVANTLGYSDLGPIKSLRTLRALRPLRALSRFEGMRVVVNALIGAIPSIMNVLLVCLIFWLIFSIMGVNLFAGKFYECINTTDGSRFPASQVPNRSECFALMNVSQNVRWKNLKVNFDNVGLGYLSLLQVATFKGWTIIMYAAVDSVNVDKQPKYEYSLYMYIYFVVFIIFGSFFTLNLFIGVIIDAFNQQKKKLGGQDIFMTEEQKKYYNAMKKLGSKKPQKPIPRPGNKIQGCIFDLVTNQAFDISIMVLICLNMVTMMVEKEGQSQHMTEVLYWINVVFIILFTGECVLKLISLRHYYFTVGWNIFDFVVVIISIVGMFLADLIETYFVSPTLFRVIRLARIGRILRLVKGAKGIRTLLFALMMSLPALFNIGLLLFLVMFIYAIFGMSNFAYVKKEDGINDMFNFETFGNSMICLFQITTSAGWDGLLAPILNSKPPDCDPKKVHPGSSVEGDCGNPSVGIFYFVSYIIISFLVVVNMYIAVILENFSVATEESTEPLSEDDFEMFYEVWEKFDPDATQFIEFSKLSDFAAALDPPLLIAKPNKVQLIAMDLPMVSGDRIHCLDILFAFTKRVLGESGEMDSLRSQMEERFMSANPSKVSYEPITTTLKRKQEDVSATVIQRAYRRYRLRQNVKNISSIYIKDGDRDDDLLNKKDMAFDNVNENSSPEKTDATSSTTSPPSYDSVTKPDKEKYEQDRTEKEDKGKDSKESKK
Put plainly: whole-cell patch clamp in transfected HEK293T cells. (The patch-clamp technique gives a direct electrical read-out from membranes.)

Assay [4] deals with T4, Nav1.7 (Homo sapiens, UniProt Q15858, V383A).
T4 construct: gene SCN9A
T4 sequence (Q15858 whole entry V383A): as the sequence (Q15858 whole entry N1459A) above, with V383A, A1459N counted along it
The description is as above.

The target in assay [5] is T5, Nav1.7 (Homo sapiens, UniProt Q15858, S1320A).
T5 construct: gene SCN9A
T5 sequence (Q15858 whole entry S1320A): as the sequence (Q15858 whole entry N1459A) above, with S1320A, A1459N counted along it
The assay is described as above.

Assay [6] has as its target T6, Nav1.7 (Homo sapiens, UniProt Q15858, F387A).
T6 construct: gene SCN9A
The assay is described as above.

The structures appear in SMILES notation.

T2 sequence (Q15858 whole entry): as the sequence (Q15858 whole entry N1459A) above, with A1459N counted along it
T1 sequence (Q15858 whole entry S1320A/N1459A): as the sequence (Q15858 whole entry N1459A) above, with S1320A counted along it
T6 sequence (Q15858 whole entry F387A): as the sequence (Q15858 whole entry N1459A) above, with F387A, A1459N counted along it

Consider `C=C(C)[C@@H]1CCC(C)=C[C@H]1c1c(O)cc(CCCCC)cc1O` [CBD, Cannabidiol], for which the half-inhibitory concentration (IC50) was 4.28 ± 0.67 µM in assay [1]; 2.46 ± 0.28 µM in assay [3]; 3.56 ± 0.58 µM in assay [4]; 3.81 ± 0.42 µM in assay [5]; 3.65 ± 0.78 µM in assay [6]. Further, the Kd in assay [2] is roughly 0.05 µM.

The term IC50 denotes the point on the concentration scale where inhibition reaches its midpoint. The low end stands for greater potency in that assay, the high end for weaker potency in that assay. One may read the Kd as the concentration at which binding is half-saturated.
